{"source": "paper PMC5775280", "about": "“Functional Characterization and Signaling Systems of Corazonin and Red Pigment Concentrating Hormone in the Green Shore Crab, Carcinus maenas” (Frontiers in Neuroscience, 2018)", "key": {"[1]": {"molecular_target": "T1, C. maenas CRZR (corazonin receptor) (Carcinus maenas, UniProt A0A2L0WQE5)", "T1 sequence (A0A2L0WQE5 1-617)": "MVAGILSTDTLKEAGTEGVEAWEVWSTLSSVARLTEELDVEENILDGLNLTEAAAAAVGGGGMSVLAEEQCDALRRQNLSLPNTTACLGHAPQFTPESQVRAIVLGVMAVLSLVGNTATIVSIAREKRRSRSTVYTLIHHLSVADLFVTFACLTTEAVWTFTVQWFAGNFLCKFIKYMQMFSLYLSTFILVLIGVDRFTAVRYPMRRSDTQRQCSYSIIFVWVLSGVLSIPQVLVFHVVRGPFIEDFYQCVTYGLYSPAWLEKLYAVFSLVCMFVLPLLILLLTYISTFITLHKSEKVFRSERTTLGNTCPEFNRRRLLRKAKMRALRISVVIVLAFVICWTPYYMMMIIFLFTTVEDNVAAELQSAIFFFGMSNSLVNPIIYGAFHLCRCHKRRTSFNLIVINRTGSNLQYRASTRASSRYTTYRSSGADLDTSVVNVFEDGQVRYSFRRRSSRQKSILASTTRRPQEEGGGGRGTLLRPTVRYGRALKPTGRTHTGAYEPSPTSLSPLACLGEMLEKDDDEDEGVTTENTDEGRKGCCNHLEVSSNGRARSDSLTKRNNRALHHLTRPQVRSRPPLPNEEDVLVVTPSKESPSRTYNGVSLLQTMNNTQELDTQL", "assay": "Aequorin luminescence Ca2+ mobilization in CHO-K1-Aeq cells transiently expressing CRZR", "type": "cell-based", "description": "Chinese hamster ovary (CHO-K1) cells containing stably expressed apoaequorin (Perkin Elmer, Boston, MA) and either Gα16 or Gq subunit (control cells) were cultured in Dulbecco's Modified Eagle Medium (DMEM) F-12 Nutrient Mixture GlutaMax (Gibco®) supplemented with 10% fetal bovine serum (Gibco®). Cells were maintained in vented T75 flasks at 37°C in 5% CO2.\nCells grown in a monolayer to approximately 60% confluency in T75 flasks were transfected with pcDNA3.1 constructs using FugeneHD (Promega) according to the manufacturer's recommendations. Briefly, transfection medium was prepared by combining 800 μl Opti-MEM® (Gibco) with 10 μg vector and 30 μl Fugene HD in a 2 ml polystyrene tube and incubated for 10 min at room temperature. The transfection reagent was added to 5 ml of fresh culture media and the cells incubated overnight at 37°C in 5% CO2. After 24 h, an additional 10 ml of culture media were added to the flasks and the cells returned to 37°C at 5% CO2 for a further overnight incubation.\nOn the day of the assay, cells were detached from the culture flask by incubating for 12 min in 5 ml 0.2% EDTA in PBS. The cells were washed with 10 ml DMEM clear DMEM/F-12 containing L-glutamine, 15 mM HEPES and moved to 50 ml centrifuge tubes. Cells were centrifuged for 5 min at 260 g and resuspended to a concentration of 5 × 10^6 cells ml^−1 in 0.2 μm filtered BSA medium (DMEM/F-12 containing L-glutamine, 15 mM HEPES + 0.1% BSA). Coelenterazine h (Invitrogen, Paisley, UK) was added to a concentration of 5 μM and the cells incubated for 4 h in the dark at room temperature whilst gently rocking. The cells were diluted 10-fold and incubated for a further 60 min before use in the assay. Synthetic peptides (GeneCust, Dudelange, Luxembourg) were reconstituted in 30% acetonitrile, dried in small aliquots by vacuum centrifugation and subsequently redissolved in BSA medium. Fifty microliter aliquots were then dispensed into quadruplicate wells of a white 96-well plate (OptiPlate, PerkinElmer). Cell suspensions were gently stirred and injected in 50 μl aliquots into each well using a Mithras LB 940 microplate reader (Berthold Technologies, Bad-Wildbad, Germany) and light emission (Ca^2+ response) recorded for 30 s. Cells were then lysed by injection of 0.3% Triton-X in BSA medium and light emission recorded for a further 10 s to measure total Ca^2+ response. BSA medium was used for blank measurements (6 replicate wells per plate) and mock transfection with empty vectors carried out for negative controls. Data was analyzed using MikroWin v5.18 (Mikrotek Laborsysteme GmbH) and SigmaPlot v.13 (Systat Software, Inc.). Receptor response was normalized against total Ca^2+ response."}, "[2]": {"test_system": "semi-isolated heart", "assay": "Cardioactivity on semi-isolated heart preparations", "parameters": "species or system Carcinus maenas", "details": "superfusion, concentrations up to 10^−6 M, 20°C", "description": "Cardioactivity of […], and ACP was performed on semi-isolated heart preparations of C. maenas. Crabs (ca. 65 mm carapace width) were ice-anesthetized and rapidly decerebrated before removing all limbs and the dorsal carapace to expose the heart and pericardial cavity. The heart was connected to a force transducer (MLT0210/A) via a micro fishing hook (size 28) and fine nylon (0.08 mm) monofilament. Connection to a PC with Chart 4.0 was via a Bridge Pod (ML301) and Powerlab 4/20 (AD Instruments Pty Ltd, Castle Hill, NSW, Australia). Transducer gain was set at maximum sensitivity (200 μV). Heart preparations were initially perfused with C. maenas physiological saline (Saver et al., [1999]) at room temperature (20°C). Once a stable heart output was achieved, hearts were firstly perfused with 1 ml saline, followed by increasing concentrations of peptides, applied in 1 ml. Crustacean cardioactive peptide (CCAP) (Bachem, Bubendorf, Switzerland), or proctolin (Sigma, Poole, UK) were positive controls (10^-11-10^-7 M). Test peptides ([…]) were perfused at 10^-8-10^-6 M for approximately 2 min at each concentration."}}, "note": "Peptide text beside a SMILES is read from it."}
{"smiles": "CC(C)C[C@H](NC(=O)[C@@H]1CCC(=O)N1)C(=O)N[C@@H](CC(N)=O)C(=O)N[C@@H](Cc1ccccc1)C(=O)N[C@@H](CO)C(=O)N1CCC[C@H]1C(=O)NCC(=O)N[C@@H](Cc1c[nH]c2ccccc12)C(N)=O", "note": "[RPCH] (HELM PEPTIDE1{[Glp].L.N.F.S.P.G.W.[am]}$$$$V2.0)", "values": [{"measurement": "binding to CRZR at extremely high concentrations", "setting": "[1]; 0.6–20 μM", "result": "some dose-dependent binding"}, {"measurement": "EC50", "setting": "[1]; CHO-K1-Aeq cells (without Gα16) transiently expressing CRZR, luminescence response normalized to total Ca2+ response, dose response curves, means of n = 4", "result": "> 20", "unit": "µM"}, {"measurement": "cardioacceleratory effect on semi-isolated hearts", "setting": "[2]", "result": "completely without cardioacceleratory effect"}]}
